From ChEMBL document CHEMBL4304803, “C-terminal modulators of heat shock protein of 90 kDa (HSP90): State of development and modes of action” (Bioorg Med Chem, 2019)

Target: Heat shock protein HSP90 (Homo sapiens, UniProt P07900+P08238)
Experiment: Binding affinity to HSP90 CTD (unknown origin) by circular dichroism spectroscopy
Format: protein assay

Kd: 27.4 µM
Compound: CC[C@H](C)[C@@H](ONC(=O)[C@H](ONC(=O)[C@@H](Cc1ccccc1)ONC(=O)[C@@H](Cc1ccccc1)ONC(=O)OCc1ccccc1)[C@@H](C)CC)C(=O)NO[C@H](CC(C)C)C(=O)NO[C@H](CC(C)C)C(N)=O
